# In US20080107619A1, “Carbohydrate based cellulase inhibitors as feeding stimulants in termites” (University of Florida Research Foundation, Inc., priority 2006, published 2008):
# Entries after “also recorded” stand apart in the source; their conditions may differ.
# Tested on: R. flavipes worker termites
# Test: No-choice Petri dish in vivo feeding bioassay (feeding and mortality, 24 days)
# Details: for Average Feeding in mg per Live Termite (std. err.) days 1-8 / Average Feeding in mg per Live Termite (std. err.) days 9-16 / Average Feeding in mg per Live Termite (std. err.) days 17-24 / Normalized Avg. Totals: 1st ROUND (lab colony); for Normalized Avg. Totals: relative to control [0] average
# Procedure: R. flavipes colonies were collected from the University of Florida campus during spring and summer 2006. Colonies were maintained in sealed plastic boxes (30×24×10 cm) at 22±1° C. and 69±1% RH. Colonies were maintained without soil and provisioned with moist brown paper towels and wood shims. Colonies that were acclimated under the above conditions for <2 months are referred to as “field colonies”, while those held for >6 months are referred to as “lab colonies”. Unless otherwise stated, all studies reported here were run with lab colonies.
# Two different termite colonies were used. A lab colony was used in bioassays that tested the effects of CBI and FMG; this was the same colony used in cellulase optimization studies, cellulase distribution studies, and for […] determination. The other colony was a field colony, which was used to repeat the FMG assay along side FMCB. The no-choice feeding bioassay was derived from a previously-developed and slightly modified caste differentiation assay reported by M. E. Scharf, et al. in “Caste differentiation responses of two sympatric Reticulitermes termite species to juvenile hormone homologs and synthetic juvenoids in two laboratory assays.” Insectes Soc. […] Acad. Sci. USA, 103 (2006) 4499-504.
# Prior to treatment, paper disks 30 were weighed. Treatments and controls were held in complete darkness at approximately 26±1° C. and 69±1% RH. The inhibitor concentrations tested were 75, 50, 25, 10, 5, 1, 0.5, and 0.1 mM (approximately […] wt/wt). For each inhibitor, paper disks were treated with 50 μl of a given concentration. Control disks received 50 μl methanol alone. Treated papers were allowed to dry in a fume hood for 30 min before placing in dishes, wetting with 25 μl water, and adding 15 termites.
# Termite feeding on the filter papers was readily observable and quantifiable from the bioassays. Average feeding through the entire bioassay was summed within each replicate and calculated as a percentage of feeding relative to untreated controls, then averaged across replicates.
# The experimental design consisted of three replicate dishes per concentration. All assays were carried out for a total of 24 days. Termite mortality and filter paper moisture were monitored every 4th day. Every 8th day, old paper disks were replaced with new ones. These new filter paper disks were treated with identical inhibitor concentrations. The removed filter paper disks 30, showing the results of termite feeding (FIG. 6), were dried and re-weighed. At the end of each assay, data were summarized as cumulative feeding per live termite and cumulative termite mortality. Data were analyzed by non-parametric t-tests (p<0.05) with commercially-available software for use in statistical analysis, designed by SAS Institute, Cary, N.C.
# FIGS. 7A-7F provide graphic data on in vivo feeding bioassays conducted with the carbohydrate-based cellulase inhibitors to assess the impact on termite feeding and survivorship. Feeding results are expressed as the cumulative percent of untreated controls through 24 days. Mortality results are expressed as percent mortality after 24 days. […] Error bars represent standard error of the mean.
smiles,measurement,setting,value
"OC[C@@H]1[C@@H](O[C@@H]2O[C@H](CO)[C@@H](O)[C@H](O)[C@H]2O)[C@H](O)[C@@H](O)c2nccn21 [CBI, cellobioimidazole]",Average Feeding in mg per Live Termite (std. err.) days 1-8,0.1 mM test conc.,0.44 (0.04) mg per Live Termite
same,Average Feeding in mg per Live Termite (std. err.) days 9-16,0.1 mM test conc.,0.42 (0.11) mg per Live Termite
same,Average Feeding in mg per Live Termite (std. err.) days 17-24,0.1 mM test conc.,0.45 (0.04) mg per Live Termite
same,Normalized Avg. Totals,0.1 mM test conc.,1.98
same,Average Feeding in mg per Live Termite (std. err.) days 1-8,0.5 mM test conc.,0.45 (0.03) mg per Live Termite
same,Average Feeding in mg per Live Termite (std. err.) days 9-16,0.5 mM test conc.,0.51 (0.06) mg per Live Termite
same,Average Feeding in mg per Live Termite (std. err.) days 17-24,0.5 mM test conc.,0.33 (0.04) mg per Live Termite
same,Normalized Avg. Totals,0.5 mM test conc.,1.02
same,Average Feeding in mg per Live Termite (std. err.) days 1-8,1 mM test conc.,0.49 (0.12) mg per Live Termite
same,Average Feeding in mg per Live Termite (std. err.) days 9-16,1 mM test conc.,0.53 (0.03) mg per Live Termite
same,Average Feeding in mg per Live Termite (std. err.) days 17-24,1 mM test conc.,0.35 (0.04) mg per Live Termite
same,Normalized Avg. Totals,1 mM test conc.,1.05
same,Average Feeding in mg per Live Termite (std. err.) days 1-8,5 mM test conc.,0.66 (0.05) mg per Live Termite
same,Average Feeding in mg per Live Termite (std. err.) days 9-16,5 mM test conc.,0.55 (0.11) mg per Live Termite
same,Average Feeding in mg per Live Termite (std. err.) days 17-24,5 mM test conc.,0.40 (0.89) mg per Live Termite
same,Normalized Avg. Totals,5 mM test conc.,1.34
same,Average Feeding in mg per Live Termite (std. err.) days 1-8,10 mM test conc.,0.38 (0.05) mg per Live Termite
same,Average Feeding in mg per Live Termite (std. err.) days 9-16,10 mM test conc.,0.43 (0.05) mg per Live Termite
same,Average Feeding in mg per Live Termite (std. err.) days 17-24,10 mM test conc.,0.33 (0.05) mg per Live Termite
same,Normalized Avg. Totals,10 mM test conc.,1.03
same,Average Feeding in mg per Live Termite (std. err.) days 1-8,25 mM test conc.,0.23 (0.01) mg per Live Termite
same,Average Feeding in mg per Live Termite (std. err.) days 9-16,25 mM test conc.,0.47 (0.44) mg per Live Termite
same,Average Feeding in mg per Live Termite (std. err.) days 17-24,25 mM test conc.,0.39 (0.01) mg per Live Termite
same,Normalized Avg. Totals,25 mM test conc.,0.95
same,Average Feeding in mg per Live Termite (std. err.) days 1-8,50 mM test conc.,0.17 (0.03) mg per Live Termite
same,Average Feeding in mg per Live Termite (std. err.) days 9-16,50 mM test conc.,0.41 (0.05) mg per Live Termite
same,Average Feeding in mg per Live Termite (std. err.) days 17-24,50 mM test conc.,0.38 (0.03) mg per Live Termite
same,Normalized Avg. Totals,50 mM test conc.,0.85
same,highest mortality observed,"0.05 and 0.2% concentrations, after 24 days, FIG. 10B",around 20%
same,Average Feeding in mg per Live Termite (std. err.) days 1-8,75 mM test conc.,0.16 (0.01) mg per Live Termite
same,Average Feeding in mg per Live Termite (std. err.) days 9-16,75 mM test conc.,0.24 (0.05) mg per Live Termite
same,Average Feeding in mg per Live Termite (std. err.) days 17-24,75 mM test conc.,0.27 (0.01) mg per Live Termite
same,Normalized Avg. Totals,75 mM test conc.,0.59
same,mortality,"1-5 mM (0.05-0.2% wt/wt), after 24 days",approximately 20%
same,Effect on feeding (cumulative percent of untreated controls through 24 days),"across tested concentrations 0.1-75 mM, FIGS. 7A-7C, 8A-8B","both inhibitory and stimulatory effects, depending on concentration; also recorded: either inhibitory or stimulatory to feeding, depending on concentration"
same,cumulative termite mortality (comparison between inhibitors),"after 24 days, FIGS. 7D-7F, 10A-10B",substantially greater than the mortality caused by FMG
same,"mortality, one replicate","one replicate of the 0.05% concentration, after 24 days",over 30%
